Test results from patent US20230212191A1, “SPIRO-SULFONIMIDAMIDE DERIVATIVES AS INHIBITORS OF MYELOID CELL LEUKEMIA-1 (MCL-1) PROTEIN” (PRELUDE THERAPEUTICS, INCORPORATED, priority 2020, published 2023).

How the values were obtained:
[1] = test system: H929 cells; assay: Cell viability assay (H929 10 FBS); type: cell-based; conditions: Homo sapiens, NCI-H929, 24 h, CellTiter-Glo or ATPlite, read-out: H929_10FBS IC50
Description: Cell Viability Assay (H929 10 FBS)
Dispense 10 μL aliquot of prepared H929 cells (1:1 ratio of cells:Trypan Blue (#1450013, Bio-Rad)) onto cell counting slide (#145-0011, Bio-Rad) and obtain cell density and cell viability using cell counter (TC20, Bio-Rad). Remove appropriate volume of resuspended cells from culture flask to accommodate 4000 cells/well @ 10 μL/well. Transfer H929 cells to 50 mL conical (#430290, Corning). Spin down at 1000 rpm for 5 min using tabletop centrifuge (SPINCHRON 15, Beckman). Discard supernatant and resuspend cell pellet in modified RPMI 1640 (#10-040-CV, Corning) cell culture media containing 10% FBS (F2422-500 ML, Sigma), sodium pyruvate (100 mM) (#25-000-CL, Corning), HEPES buffer (1 M) (#25-060-CL, Corning) and glucose (200 g/L) (A24940-01, Gibco) to a cell density of 400,000 cells/mL. Dispense 10 μL of resuspended H929 cells per well in 384-well small volume TC treated plate (#784080, Greiner Bio-one) using standard cassette (#50950372, Thermo Scientific) on Multi-drop Combi (#5840310, Thermo Scientific) in laminar flow cabinet. Dispense compounds onto plates using digital liquid dispenser (D300E, Tecan). Incubate plates in humidified tissue culture incubator @ 37° C. for 24 hours. Add 10 μL of prepared CellTiTer-Glo® detection buffer (G7570, Promega) or ATPlite 1Step detection reagent (#6016731, Perkin Elmer) to each well of 384-well plate using small tube cassette (#24073295, Thermo Scientific) on Combi multi drop, incubate @ RT for 30-60 min. Read plates with microplate reader (PheraStar, BMG Labtech) using 384 well luminescence mode.

[2] = molecular target: T1, MCL-1 (Homo sapiens, UniProt Q07820); assay: Cell free Mcl-1:Bim affinity assay (fluorescence polarization competition); type: binding; conditions: 15 nM MCL-1, 5 nM FITC-Bim tracer, 1 hour at room temperature; Ki calc. from IC50 by Nikolovska-Coleska's equation; read-out: BIM_ Ki
T1 construct: purchased BPS Bioscience
T1 sequence (Q07820 whole entry): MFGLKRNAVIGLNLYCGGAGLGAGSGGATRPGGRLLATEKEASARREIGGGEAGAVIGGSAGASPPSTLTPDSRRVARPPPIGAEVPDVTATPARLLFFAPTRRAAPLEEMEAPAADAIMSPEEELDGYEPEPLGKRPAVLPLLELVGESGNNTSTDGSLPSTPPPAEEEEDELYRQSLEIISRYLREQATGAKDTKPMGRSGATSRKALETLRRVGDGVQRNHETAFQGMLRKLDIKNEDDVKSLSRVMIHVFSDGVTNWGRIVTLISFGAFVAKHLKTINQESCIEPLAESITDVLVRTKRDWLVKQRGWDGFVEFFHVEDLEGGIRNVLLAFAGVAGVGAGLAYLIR
Description: Cell Free Mcl-1:Bim Affinity Assay (Mcl-1 Bim)
The binding affinity of each compound was measured via a fluorescence polarization competition assay, in which the compound competes for the same binding site with the ligand, and thus leads to a dose-dependent anisotropy reduction. The tracer ligand utilized was a fluorescein isothiocyanate labelled peptide (FITC-[…]) derived from Bim (GenScript).
The assay was carried out in black half-area 96-well NBS plate (Corning), containing 15 nM of MCL-1 (BPS Bioscience), 5 nM of FITC-Bim and 3-fold serial diluted test compounds in a total volume of 50 μL of assay buffer (20 mM HEPES, 50 mM NaCl, 0.002% Tween 20, 1 mM TCEP, and 1% DMSO). The reaction plate was incubated for 1 hour at room temperature. The change of anisotropy is measured with an Envision multimode plate reader (PerkinElmer) at emission wavelength 535 nm. Fluorescence polarization was calc. in mP unit and the percentage inhibition was calc. by % inhibition=100×(mPDMSO−mP)/(mPDMSO−mPPC), in which mPDMSO is the DMSO control, and mPPC is the positive control. IC50 values were determined from a 10-point dose response curve by fitting the percent inhibition against compound concentration using the GraphPad Prism software. The inhibition constant Ki was subsequently calc. according to the Nikolovska-Coleska's equation (Anal. Biochem., 2004, 332, 261),
where [I]50 is the concentration of the free inhibitor at 50% inhibition, [L]50 is the concentration of the free labeled ligand at 50% inhibition, [P]0 is the concentration of the free protein at 0% inhibition, and Kd is the dissociation constant of the protein-ligand complex.

IC50 [1] | Ki [2] | SMILES
< 100 nM | < 1 nM | COc1nn(C)cc1C(=O)NS1(=O)=NC(=O)C(C)(C)OC/C=C/[C@H](OC)[C@@H]2CC[C@H]2CN2C[C@@]3(CCCc4cc(Cl)ccc43)COc3ccc1cc32 (stereo partly drawn) [Example 16, N-[(3R,6R,7S,8E,22S)-7′-Chloro-7-methoxy-12,12-dimethyl-13,15-dioxospiro[11,20-dioxa-15-thia-1,14-diazatetracyclo[14.7.2.03,6.019,24]pentacosa-8,14,16,18,24-pentaene-22,4′-2,3-dihydro-1H-naphthalene]-15-yl]-3-methoxy-1-methylpyrazole-4-carboxamide]
< 100 nM | < 1 nM | CO[C@H]1/C=C/COC(C)(C)C(=O)N=S(=O)(NC(=O)c2cn(C)nc2C)c2ccc3c(c2)N(C[C@@H]2CC[C@H]21)C[C@@]1(CCCc2cc(Cl)ccc21)CO3 (stereo partly drawn) [Example 17, N-[(3R,6R,7S,8E,22S)-7′-chloro-7-methoxy-12,12-dimethyl-13,15-dioxospiro[11,20-dioxa-15-thia-1,14-diazatetracyclo[14.7.2.03,6.019,24]pentacosa-8,14,16,18,24-pentaene-22,4′-2,3-dihydro-1H-naphthalene]-15-yl]-1,3-dimethylpyrazole-4-carboxamide]
< 100 nM | < 1 nM | CCNC(=O)NS1(=O)=NC(=O)C(C)(C)OC/C=C/[C@H](OC)[C@@H]2CC[C@H]2CN2C[C@@]3(CCCc4cc(Cl)ccc43)COc3ccc1cc32 (stereo partly drawn) [Example 20, 1-[(3R,6R,7S,8E,22S)-7′-Chloro-7-methoxy-12,12-dimethyl-13,15-dioxospiro[11,20-dioxa-15-thia-1,14-diazatetracyclo[14.7.2.03,6.019,24]pentacosa-8,14,16,18,24-pentaene-22,4′-2,3-dihydro-1H-naphthalene]-15-yl]-3-ethylurea]
< 100 nM | < 1 nM | CO[C@H]1/C=C/COC(C)(C)C(=O)N=S(=O)(NC(=O)N2CC(N(C)C)C2)c2ccc3c(c2)N(C[C@@H]2CC[C@H]21)C[C@@]1(CCCc2cc(Cl)ccc21)CO3 (stereo partly drawn) [Example 33, N-[(3R,6R,7S,8E,22S)-7′-Chloro-7-methoxy-12,12-dimethyl-13,15-dioxospiro[11,20-dioxa-15-thia-1,14-diazatetracyclo[14.7.2.03,6.019,24]pentacosa-8,14,16,18,24-pentaene-22,4′-2,3-dihydro-1H-naphthalene]-15-yl]-3-(dimethylamino)azetidine-1-carboxamide]
